What was measured:
[1] = test system: neurons differentiated from H9-derived spinal cord NSCs; test: Whole-cell patch clamp electrophysiology of neurons differentiated from H9-derived spinal cord NSCs; details: spontaneous postsynaptic currents, all three drugs
SOX1+/SOX2+/Nestin+ NSCs = test: Long-term maintenance culture of spinal cord NSCs; assay type: cell-based, human; details: due to differentiation, data not shown

## N[C@@H](CCCP(=O)(O)O)C(=O)O [APV]
[1]
  spiking of neuron after glutamate receptor and GABA-A receptor antagonists: no change in spiking

## Cc1c[nH]c(-c2cnc(NCCNc3ccc(C#N)cn3)nc2-c2ccc(Cl)cc2Cl)n1 [CHIR, CHIR99021]
SOX1+/SOX2+/Nestin+ NSCs
  culture maintenance over time on omission of the component from maintenance medium: failure to sustain cultures

## O=[N+]([O-])c1cc2nc(O)c(O)nc2cc1[N+](=O)[O-] [DNQX]
[1]
  spiking of neuron after glutamate receptor and GABA-A receptor antagonists: no change in spiking

## CNC1CCC(N(Cc2cccc(-c3ccncc3)c2)C(=O)c2sc3c(F)ccc(F)c3c2Cl)CC1 (centres unmarked) [Hh-Ag1.5]
SOX1+/SOX2+/Nestin+ NSCs
  culture maintenance over time on omission of the component from maintenance medium: failure to sustain cultures

## picrotoxin
[1]
  spiking of neuron after glutamate receptor and GABA-A receptor antagonists: no change in spiking
